Source: patent US20130123264A1, “COMPOSITIONS AND METHODS FOR TREATMENT OF INFLAMMATORY BOWEL DISORDERS AND INTESTINAL CANCERS” (priority 2011, published 2013)
≈ marks a conversion by molar mass, not a printed value. Entries after “also recorded” stand apart in the source; their conditions may differ.

Tests used:
[1] = in vivo; cited from earlier work
[2] = system: colon mucosa of Prkg2−/− mice; assay: Colon mucosa homeostasis after 7 days of treatment in PKG2 knockout animals; type: in vivo, mouse
Method: FIG. 16A is a bar graph of ileum, proximal and distal tissue versus cGMP (pmol/mg protein). […] Colon mucosa was harvested 3 hrs later for analysis of cGMP content with ELISA kit. cGMP level was measured relative to total protein loading. […] Same WT/KO tissues were analyzed for apoptosis (TUNEL). Error bars indicate SEM and asterisks show significance (p<0.05).
FIGS. 17A, 17B, 17C, and 17D are line graphs of ascending, trans, and descending tissue samples versus goblet cells/crypt (17A and B) or CgA/crypt (17C and D). […] Error bars show SEM, N>3, *p<0.05, by two-tailed t-test.
FIGS. 14A-14C show quantification of mature goblet cells in the ascending (A) and transverse colon (B) of wild type and PKG2 knockout animals. […] The increase in goblet cells observed in the wild type animals was not observed in the PKG2-deficient animals, which indicates the involvement of PKG2 in this process.

DSS-induced colitis = assay: DSS-induced murine colitis model; type: in vivo, mouse
Method: FIG. 20A is a line graph of days of treatment versus disease activity index (DAI). […] The animal weight and stool-composition (diarrhea and bleeding) were recorded daily and are shown as disease activity index. Error bars indicate SD (n=3) and asterisks denote statistical significance (p<0.05, t-test). FIG. 20B is a line graph of proximal, mid, and distal tissue samples versus TUNEL/Crypt. Some mice were sacrificed at Day 5 with DSS for pathological analysis. Descending colons of mice treated with control (Ctrl) and Vardenafil (Vard.) were harvested and stained for apoptosis (TUNEL). Positive cells were subjected to quantification and the quantified cells were graphed. Error bars indicate SEM (n=3) and asterisks denote statistical significance (p<0.05 t-test).
Control animals were injected with PBS vehicle. After 5 days the DSS was replaced with water. Incidence and severity of diarrhea and body weight were recorded daily and combined in an index of disease severity.
The best characterized mouse model of IBD involves administration of dextran sulfate-sodium (DSS) in the drinking water, and this is toxic specifically to luminal epithelial cells of the distal colon.

colon mucosa [3] = assay: cGMP content of colon mucosa after intraperitoneal injection (ELISA); type: in vivo, mouse
Method: The cGMP levels were standardized for protein content using OD280 of the extracts. […] Error bars indicate SEM. Asterisks indicate significance relative to control (p<0.05). […] FIG. 16A is a bar graph of ileum, proximal and distal tissue versus cGMP (pmol/mg protein). Mice were treated by intraperitoneal injection with PBS in vehicle (ctrl) or Vardenafil in vehicle (Vard.) (equivalence to human dose based on body weight). Colon mucosa was harvested 3 hrs later for analysis of cGMP content with ELISA kit. cGMP level was measured relative to total protein loading. […] Same WT/KO tissues were analyzed for apoptosis (TUNEL). Error bars indicate SEM and asterisks show significance (p<0.05). […] The mice were sacrificed 4 hours later and colon mucosa was harvested for analysis of cGMP content by ELISA. The cGMP levels were standardized for protein content using OD280 of the extracts. The error bars show SEM (FIG. 10B).

[4] = in water; cited from earlier work
CD1 mouse colon explants = assay: cGMP content of mucosa from mouse colon explants incubated in vitro (ELISA); type: cell-based; conditions: 2 hours
Method: The cGMP levels were standardized for protein content using OD280 of the extracts. […] Error bars indicate SEM. Asterisks indicate significance relative to control (p<0.05). CD1 mouse colon explants were incubated with PDE5 inhibitors in vitro. After 2 hours, the mucosa was harvested for analysis of cGMP content by ELISA (FIG. 10A).

[5] = system: HCT116 colon cancer cells; assay: cGMP content of colon cancer cells by competitive ELISA; conditions: colon cancer cell lines, 2 hours incubation
colon mucosa [6] = assay: Colon mucosa homeostasis after 7 days of treatment (TUNEL, BrdU/Ki-67, goblet cell staining); type: in vivo, mouse; conditions: wild type mice, 5 mg/kg IP b.i.d. 7 days; for epithelial cell death / apoptosis (TUNEL) in colon / mature goblet cell numbers in colon: 5 mg/kg
Description: Sections were stained for apoptotic cells using TUNEL in control and treated. TUNEL positive cells were found. […] FIG. 12B Quantitation of cell proliferation in the colon mucosa by BrdU incorporation. Asterisks in FIGS. 12A and 12B show statistical significance, p<0.05 of treated relative to control.
Mature goblet cells were counted in different sections of the colon following staining with Alcian blue-periodic acid schiff. FIG. 11A: Different regions of the gut (ilium of small intestine, ascending and descending portions of the colon). FIG. 11B: Relative mature goblet cell number in different sections of the proximal colon. Asterisks indicate significance (p<0.05, n=3).
Immunohistochemistry of tissue samples from Vardenafil treated and control mice was performed.

colon mucosa [7] = assay: Redox stress in colon mucosa by DCF fluorescence after IP treatment; type: in vivo, mouse; conditions: 4 h, p>0.05 by t-test (n=3)
Method: After 4 h the animals were sacrificed and the colon mucosa was harvested for analysis of redox stress using DCF fluorescence. Error bars indicate standard deviation (n=3), but p>0.05 by t-test (FIG. 15B)
(§1) Colons were removed from sacrificed animals and incubated with 20 μM DCF for 30 minutes, then homogenized and the fluorescence measured (at FITC wavelengths; 485/535 nm). Specimens were incubated directly (30 min time point), or incubated for 30 min or 90 min under standard tissue culture conditions before adding DCF for the final 30 min (60 and 120 min time points).

colon explants [8] = assay: Redox stress (DCF fluorescence) in colon explants; type: cell-based, mouse; conditions: 100 uM
Method: FIG. 15A is a bar graph showing DCF fluorescence of extracts from colon explants with (cGMP, open bars) or without (control, filled bars) cGMP treatment.
as §1

colon explants [9] = assay: Antioxidant gene expression in colon explants (RT-PCR, Western blotting); type: cell-based, mouse; conditions: 100 uM, 3-4 hours
Method: Explants of proximal and distal colon from mice were treated for 3-4 hours with 100 uM 8Br-cGMP and then the mucosa was harvested for analysis of antioxidant gene and protein expression by RT-PCR and Western blotting. Blots were reprobed for b-actin expression as a loading control.
In addition to attenuating proliferation, the activation of Foxo4 can upregulate antioxidant genes. To determine whether activation of endogenous PKG could affect the expression of antioxidant genes in the colon, explants of proximal and distal colon from mice were treated for 3-4 hours with 100 uM 8Br-cGMP and then the mucosa was harvested for analysis of antioxidant genes expression by RT-PCR or Western blotting. HPRT and b-actin were used as loading controls.

JNK = assay: JNK-P in colon explants (immunoblotting); type: cell-based, mouse
Method: The relative expression of DUSP10 was measured by RT-PCR in wild type and knockout mice (Prkg2+/+ and Prkg2−/−), LS174T and HT29 colon cancer cells with or without PKG2 expression, and in colon explants treated with 8BrcGMP. Mucosa from different parts of the mouse digestive tract were analyzed by immunoblotting for JNKP, total JNK, DUSP10 and PKG2. Immunoblotting of ileum and proximal colon explants with or without 8Br-cGMP treatment to activate PKG2 was also performed.

For `CCCc1nc(C)c2c(=O)[nH]c(-c3cc(S(=O)(=O)N4CCN(CC)CC4)ccc3OCC)nn12` [Vardenafil, vardenafil], the t1/2 [1] is given as 4 to 5 h, the “increase in goblet cells” value ([2]; PKG2-deficient animals, 5 mg/kg IP b.i.d. 7 days) is given as “not observed” and the reduction in apoptosis ([2]; PKG2 knockouts, 5 mg/kg IP b.i.d. 7 days) is given as “not observed”. For the same compound, the “homeostasis in Prkg2−/− animals” value ([2]; i.p. for several days) was “did not affect”, the death of animals (DSS-induced colitis; 5% DSS, n=4, half the untreated animals died) was 25% and the “DSS induced apoptosis (TUNEL)” value (DSS-induced colitis; Day 5 with DSS) was “inhibited”. For the same compound, the “DSS induced activation of JNK” value (DSS-induced colitis; descending colon, JNK-phospho T183/Y185) was “inhibited”, the “DUSP10 levels in the colon mucosa” value (DSS-induced colitis; wild type mice) was “increased” and the “cGMP in the proximal colon epithelium” value (colon mucosa [3]; IP, lesser extent in terminal ileum and distal colon) was “rapidly increased”. The “intracellular cGMP levels in mouse colon mucosa” value (colon mucosa [3]; intraperitoneal injection, mucosa harvested 4 hours later) was “significant increase”, the Solubility [4] was 110 µg/mL (≈ 0.225 mM) and the “cGMP levels in mouse colon explants” value (CD1 mouse colon explants) was “significantly increase”. For the same compound, the “intracellular cGMP levels” value [5] was “significantly increased”, the “crypt proliferation (BrdU, Ki-67) in colon” value (colon mucosa [6]) was “reduced” and the “epithelial cell death / apoptosis (TUNEL) in colon” value (colon mucosa [6]) was “reduction; also recorded: reduced”. For the same compound, the “mature goblet cell numbers in colon” value (colon mucosa [6]) was “dramatic increase”, the “epithelial cell death / apoptosis (TUNEL) in colon” value (colon mucosa [6]; listed as vardenafil) was “reduced” and the “mature goblet cell numbers in colon” value (colon mucosa [6]; listed as vardenafil) was “significantly increased”. For the same compound, the “redox stress levels in the colon mucosa (DCF fluorescence)” value (colon mucosa [7]) was “partly mimic antioxidant effects of exogenous cGMP; also recorded: could indeed affect redox stress levels”.
In the case of `Nc1nc2c(nc(Br)n2[C@@H]2O[C@@H]3COP(=O)(O)O[C@H]3[C@H]2O)c(=O)[nH]1` [8Br-cGMP], the “redox stress (DCF fluorescence) in colon explants” value (colon explants [8]) was “decreased”, the “antioxidant gene expression in colon explants” value (colon explants [9]) was “broad increase” and the “basal activated JNK-P levels in colon explants” value (JNK) was “decrease”.
For `CCCc1nn(C)c2c(=O)nc(-c3cc(S(=O)(=O)N4CCN(C)CC4)ccc3OCC)[nH]c12` [Sildenafil, sildenafil], the t1/2 [1] is given as 3 to 5 h, the Solubility [4] is given as 3500 µg/mL (≈ 7.37 mM) and the “intracellular cGMP levels” value [5] is given as “significantly increased”.
For `CN1CC(=O)N2[C@H](c3ccc4c(c3)OCO4)c3[nH]c4ccccc4c3C[C@@H]2C1=O` [Tadalafil, tadalafil], the t1/2 [1] is listed as 17.5 h.
